# Experiments:
# Plasmodium falciparum = experiment: Antimalarial activity against Plasmodium falciparum; format: functional, organism-based
# [1] = biological target: T1, 1-deoxy-D-xylulose 5-phosphate reductoisomerase (Escherichia coli K-12, UniProt P45568); experiment: Inhibition of Escherichia coli DXR
# T1 sequence (P45568 whole entry): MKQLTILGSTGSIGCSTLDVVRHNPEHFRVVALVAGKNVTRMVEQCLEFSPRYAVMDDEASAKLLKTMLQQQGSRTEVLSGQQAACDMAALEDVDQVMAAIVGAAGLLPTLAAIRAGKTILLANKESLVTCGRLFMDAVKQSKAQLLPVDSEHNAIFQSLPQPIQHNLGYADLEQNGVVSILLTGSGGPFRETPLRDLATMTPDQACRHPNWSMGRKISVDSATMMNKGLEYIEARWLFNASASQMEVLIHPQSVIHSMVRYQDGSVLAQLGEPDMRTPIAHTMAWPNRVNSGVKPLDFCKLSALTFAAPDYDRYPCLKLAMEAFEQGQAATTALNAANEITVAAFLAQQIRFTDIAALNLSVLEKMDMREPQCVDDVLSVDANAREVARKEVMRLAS
# [2] = Half life in plasma; format: ADME, cell-free
EC50 (Plasmodium falciparum) [nM],half-life [2] [h],SMILES,IC50 [1] [nM]
250,,COc1ccc([C@@H](CCN(O)C(C)=O)P(=O)(O)O)cc1,459
250,,CC(=O)N(O)CC[C@H](c1ccc(C)cc1)P(=O)(O)O,396
250,,CC(=O)N(O)CC[C@H](c1ccccc1)P(=O)(O)O,
250,,CC(=O)N(O)CC[C@H](c1ccc(Cl)cc1)P(=O)(O)O,99
250,,CC(=O)N(O)CC[C@H](c1ccc(Cl)c(Cl)c1)P(=O)(O)O,119
,,O=CN(O)CCCc1ccc(Cl)c(Cl)c1,> 100000
,,O=P(O)(O)Cc1ccc(Cl)c(Cl)c1,> 100000
,,O=CN(O)CCCc1ccncc1,> 100000
,,O=P(O)(O)Cc1ccncc1,7100
,,O=P(O)(O)Cc1cccnc1,10000
,,O=c1ccc(-c2ccccc2)cn1O [1-HYDROXY-5-PHENYLPYRIDIN-2(1H)-ONE],1400
1100,1,O=CN(O)CCCP(=O)(O)O [FOSMIDOMYCIN],
